System: Caucasian patients with schizophrenia (CATIE)
Test: Genetic association (linear regression, additive model) of SNP alleles with MMRM-modelled change in PANSS Total Score under antipsychotic treatment, CATIE trial
Format: in vivo, human

With `OCCOCCN1CCN(C2=Nc3ccccc3Sc3ccccc32)CC1` [Quetiapine, quetiapine] the “Beta (PANSS)” value (AKAP9 rs35759833 allele C, P 4.46E−02) was −4.62 PANSS, the “Beta (PANSS)” value (ARSB rs25414 allele C, P 2.37E−03) was −9.37 PANSS and the “Beta (PANSS)” value (ATP2B2 rs11712897 allele C, P 2.77E−02) was −3.54 PANSS. For the same compound, the “Beta (PANSS)” value (C13orf35 rs4907727 allele C, P 2.16E−02) was −3.58 PANSS, the “Beta (PANSS)” value (C15orf41 rs8027206 allele A, P 2.90E−02) was −3.40 PANSS and the “Beta (PANSS)” value (CA10 rs7210687 allele C, P 2.52E−02) was −3.24 PANSS. For the same compound, the “Beta (PANSS)” value (CA10 rs17607202 allele C, P 3.87E−02) was −3.10 PANSS, the “Beta (PANSS)” value (CACNA2D3 rs9861155 allele A, P 2.07E−02) was −4.28 PANSS and the “Beta (PANSS)” value (CCBE1 rs12606241 allele G, P 3.38E−02) was −4.12 PANSS. The “Beta (PANSS)” value (CDH13 rs3935908 allele G, P 4.47E−02) was −2.89 PANSS, the “Beta (PANSS)” value (CDH13 rs8048616 allele C, P 2.03E−02) was −3.49 PANSS and the “Beta (PANSS)” value (CERK rs78424 allele A, P 2.86E−02) was −3.60 PANSS. For the same compound, the “Beta (PANSS)” value (CHRM3 rs4659552 allele A, P 3.50E−02) was −3.02 PANSS, the “Beta (PANSS)” value (CLSTN2 rs10513102 allele C, P 4.28E−02) was −4.05 PANSS and the “Beta (PANSS)” value (CNTN6 rs7646412 allele A, P 2.28E−02) was −4.64 PANSS. For the same compound, the “Beta (PANSS)” value (CNTNAP2 rs10240221 allele A, P 3.63E−02) was −3.22 PANSS, the “Beta (PANSS)” value (COL22A1 rs4311658 allele G, P 2.37E−03) was −5.04 PANSS and the “Beta (PANSS)” value (COL22A1 rs4442151 allele C, P 2.37E−03) was −5.04 PANSS. For the same compound, the “Beta (PANSS)” value (CPLX2 rs2243404 allele C, P 2.25E−02) was −4.30 PANSS, the “Beta (PANSS)” value (CSMD1 rs2616996 allele G, P 4.49E−02) was −3.44 PANSS and the “Beta (PANSS)” value (CTNNA2 rs10201249 allele A, P 2.33E−02) was −4.77 PANSS. The “Beta (PANSS)” value (CTNNA2 rs10520244 allele C, P 2.12E−02) was −6.07 PANSS, the “Beta (PANSS)” value (CTNNA2 rs17018593 allele A, P 2.95E−02) was −4.25 PANSS and the “Beta (PANSS)” value (DENND4C rs2666797 allele C, P 2.72E−02) was −3.79 PANSS. For the same compound, the “Beta (PANSS)” value (DGKD rs838717 allele A, P 2.74E−02) was −3.38 PANSS, the “Beta (PANSS)” value (DLC1 rs12677920 allele A, P 3.27E−02) was −3.35 PANSS and the “Beta (PANSS)” value (DLG2 rs7101982 allele C, P 4.47E−02) was −2.93 PANSS. For the same compound, the “Beta (PANSS)” value (DYNC1I1 rs17638044 allele C, P 2.39E−03) was −8.72 PANSS, the “Beta (PANSS)” value (ERG rs10854385 allele A, P 3.76E−02) was −4.00 PANSS and the “Beta (PANSS)” value (ESRRG rs9441544 allele C, P 2.40E−02) was −4.04 PANSS. The “Beta (PANSS)” value (ETV1 rs41505 allele C, P 2.62E−03) was −4.08 PANSS, the “Beta (PANSS)” value (EXOC2 rs1747599 allele G, P 4.44E−02) was −3.71 PANSS and the “Beta (PANSS)” value (EXOC2 rs17135234 allele A, P 3.55E−02) was −4.93 PANSS. For the same compound, the “Beta (PANSS)” value (FBXL2 rs6772365 allele C, P 4.07E−02) was −3.45 PANSS, the “Beta (PANSS)” value (FHIT rs12636662 allele A, P 2.18E−03) was −4.62 PANSS and the “Beta (PANSS)” value (FLJ38109 rs11167681 allele C, P 3.82E−02) was −3.35 PANSS. The “Beta (PANSS)” value (FMN2 rs1020709 allele C, P 3.77E−02) was −3.38 PANSS, the “Beta (PANSS)” value (FMNL2 rs1155779 allele C, P 2.20E−02) was −3.41 PANSS and the “Beta (PANSS)” value (FOXP1 rs831440 allele C, P 3.37E−02) was −3.67 PANSS. The “Beta (PANSS)” value (GALNTL4 rs4909979 allele C, P 2.49E−02) was −5.30 PANSS, the “Beta (PANSS)” value (GNG2 rs1343870 allele G, P 4.37E−02) was −3.12 PANSS and the “Beta (PANSS)” value (GPR116 rs9395218 allele C, P 3.77E−02) was −4.73 PANSS. For the same compound, the “Beta (PANSS)” value (GRID2 rs1433667 allele C, P 2.84E−03) was −4.87 PANSS, the “Beta (PANSS)” value (GRID2 rs1836115 allele A, P 3.01E−02) was −3.53 PANSS and the “Beta (PANSS)” value (GRID2 rs13103135 allele C, P 4.20E−02) was −3.66 PANSS. The “Beta (PANSS)” value (GRM8 rs17865066 allele A, P 2.61E−02) was −10.79 PANSS, the “Beta (PANSS)” value (GRM8 rs17865434 allele C, P 2.61E−02) was −10.79 PANSS and the “Beta (PANSS)” value (HAAO rs3755540 allele C, P 2.01E−02) was −3.79 PANSS. For the same compound, the “Beta (PANSS)” value (INMT-FAM188B;FAM188B rs10230286 allele A, P 2.09E−02) was −3.51 PANSS, the “Beta (PANSS)” value (INMT-FAM188B;FAM188B rs11972565 allele A, P 2.70E−02) was −3.53 PANSS and the “Beta (PANSS)” value (ITPR2 rs11048710 allele A, P 3.74E−02) was −3.75 PANSS. The “Beta (PANSS)” value (IYD rs2076286 allele A, P 4.24E−02) was −6.69 PANSS, the “Beta (PANSS)” value (JAG1 rs6074164 allele A, P 3.54E−02) was −4.59 PANSS and the “Beta (PANSS)” value (KCNB1 rs34467662 allele C, P 2.39E−02) was −9.06 PANSS. The “Beta (PANSS)” value (KCNIP4 rs10516363 allele A, P 3.20E−02) was −3.43 PANSS, the “Beta (PANSS)” value (KCNQ1 rs422314 allele C, P 3.83E−02) was −3.18 PANSS and the “Beta (PANSS)” value (KCNQ3 rs17659416 allele A, P 2.67E−02) was −4.39 PANSS. The “Beta (PANSS)” value (LDB2 rs3805320 allele A, P 3.90E−02) was −3.16 PANSS, the “Beta (PANSS)” value (LRFN2 rs2078460 allele A, P 3.06E−02) was −3.67 PANSS and the “Beta (PANSS)” value (LRP1B rs2380943 allele C, P 1.96E−02) was −3.47 PANSS. The “Beta (PANSS)” value (LRP1B rs34488772 allele A, P 2.80E−02) was −8.41 PANSS, the “Beta (PANSS)” value (MCPH1 rs2515509 allele C, P 2.44E−02) was −5.16 PANSS and the “Beta (PANSS)” value (MSR1 rs6981231 allele C, P 2.17E−02) was −7.67 PANSS. For the same compound, the “Beta (PANSS)” value (MYO10 rs26317 allele A, P 2.25E−02) was −3.80 PANSS, the “Beta (PANSS)” value (NCAM2 rs12483671 allele A, P 4.38E−02) was −3.47 PANSS and the “Beta (PANSS)” value (NLGN1 rs2861338 allele A, P 2.69E−02) was −3.51 PANSS. The “Beta (PANSS)” value (NPAS3 rs927763 allele G, P 3.26E−02) was −4.45 PANSS, the “Beta (PANSS)” value (NRG3 rs12767532 allele G, P 2.93E−02) was −3.66 PANSS and the “Beta (PANSS)” value (OPCML rs3018407 allele A, P 2.60E−02) was −3.48 PANSS. For the same compound, the “Beta (PANSS)” value (OPCML rs3019855 allele C, P 3.16E−02) was −3.40 PANSS, the “Beta (PANSS)” value (OPCML rs3920986 allele G, P 2.33E−02) was −3.72 PANSS and the “Beta (PANSS)” value (PARD3B rs7589114 allele C, P 4.08E−02) was −3.18 PANSS. The “Beta (PANSS)” value (PCDH15 rs2384470 allele C, P 2.33E−03) was −5.21 PANSS, the “Beta (PANSS)” value (PIKFYVE rs17699982 allele A, P 4.51E−02) was −4.12 PANSS and the “Beta (PANSS)” value (PLCG2 rs4889447 allele C, P 3.48E−02) was −5.77 PANSS. For the same compound, the “Beta (PANSS)” value (PLXDC2 rs989767 allele A, P 4.48E−02) was −3.31 PANSS, the “Beta (PANSS)” value (PRKG1 rs1904018 allele C, P 2.81E−02) was −3.09 PANSS and the “Beta (PANSS)” value (PTPRT rs876523 allele C, P 2.06E−02) was −3.45 PANSS. The “Beta (PANSS)” value (RGS7 rs2678780 allele A, P 2.47E−03) was −4.56 PANSS, the “Beta (PANSS)” value (RGS7 rs10802943 allele C, P 3.52E−02) was −2.99 PANSS and the “Beta (PANSS)” value (RIMBP2 rs12305517 allele C, P 2.16E−02) was −5.62 PANSS. For the same compound, the “Beta (PANSS)” value (ROBO2 rs1470571 allele C, P 3.50E−02) was −3.69 PANSS, the “Beta (PANSS)” value (RPRD1A rs4799835 allele A, P 4.31E−02) was −3.76 PANSS and the “Beta (PANSS)” value (SAMD4A rs8011374 allele C, P 3.60E−02) was −3.17 PANSS. For the same compound, the “Beta (PANSS)” value (SDK2 rs4969114 allele A, P 2.22E−02) was −3.33 PANSS, the “Beta (PANSS)” value (SGCZ rs12155874 allele A, P 3.89E−02) was −3.08 PANSS and the “Beta (PANSS)” value (SHC3 rs10122011 allele C, P 2.47E−02) was −3.43 PANSS. The “Beta (PANSS)” value (SLC35F3 rs12087906 allele G, P 3.30E−02) was −9.04 PANSS, the “Beta (PANSS)” value (SORBS1 rs4572071 allele A, P 3.25E−02) was −3.66 PANSS and the “Beta (PANSS)” value (SORBS1 rs4918911 allele C, P 4.32E−02) was −3.34 PANSS. For the same compound, the “Beta (PANSS)” value (ST8SIA1 rs4606528 allele C, P 3.26E−02) was −3.84 PANSS, the “Beta (PANSS)” value (STX11 rs3734228 allele C, P 3.21E−02) was −9.67 PANSS and the “Beta (PANSS)” value (STX11 rs6912580 allele C, P 3.21E−02) was −9.67 PANSS. For the same compound, the “Beta (PANSS)” value (TGIF1 rs12606927 allele A, P 4.02E−02) was −3.49 PANSS, the “Beta (PANSS)” value (TMC1 rs10869183 allele T, P 2.41E−02) was −3.43 PANSS and the “Beta (PANSS)” value (TMTC2 rs7974520 allele A, P 3.49E−02) was −3.64 PANSS. The “Beta (PANSS)” value (TRIM9 rs882413 allele C, P 2.00E−02) was −4.35 PANSS, the “Beta (PANSS)” value (TSC1 rs1050700 allele A, P 4.13E−02) was −3.29 PANSS and the “Beta (PANSS)” value (USP10 rs2012708 allele C, P 3.86E−02) was −3.05 PANSS. For the same compound, the “Beta (PANSS)” value (WWOX rs7203676 allele C, P 2.23E−02) was −3.87 PANSS.
